ChEMBL document CHEMBL3259529, “Strychnobaillonine, an unsymmetrical bisindole alkaloid with an unprecedented skeleton from Strychnos icaja roots” (J Nat Prod, 2014)
≈ marks a conversion by molar mass, not a printed value.

Experiments:
Plasmodium falciparum = experiment: Antiplasmodial activity against chloroquine-sensitive Plasmodium falciparum 3D7 assessed as growth inhibition by lactate dehydrogenase assay; format: functional, organism-based
WI-38 = experiment: Cytotoxicity against human WI38 cells assessed as cell viability by WST-1 assay; format: cell-based
[1] = Selectivity index, ratio of IC50 for human WI38 cells to IC50 for chloroquine-sensitive Plasmodium falciparum 3D7; format: toxicity, cell-based, WI-38; conditions: read-out: Ratio IC50

C/C=C1/CN2CC[C@]34c5ccccc5N5C(=O)[C@H]6[C@@H](O)[C@H]7[C@@H]8N(c9ccccc9[C@@]89CCN8C/C(=C/C)[C@@H]7C[C@H]89)[C@@H]6[C@H]([C@H]53)[C@H]1C[C@H]24
IC50 (Plasmodium falciparum): 1.1 µM | IC90 (Plasmodium falciparum): 2.6 mg/L (≈ 4.24 µM) | IC50 (WI-38): > 10 mg/L | selectivity ratio [1]: > 14

C/C=C1/CN2[C@@H](C3=C[C@@H]4[C@@H]5N(C3=O)c3ccccc3[C@@]53CCN5C/C(=C/C)[C@@H]4C[C@H]53)C[C@@]34c5ccccc5N5C6=C7[C@H]8C[C@@H]9N(CC[C@@]9%10c9ccccc9N(C6=C([C@H]1C[C@H]23)[C@H]54)[C@@H]7%10)C/C8=C/C
IC50 (Plasmodium falciparum): 0.6 µM | IC90 (Plasmodium falciparum): 1.6 mg/L (≈ 1.85 µM) | IC50 (WI-38): < 5 mg/L | selectivity ratio [1]: < 10.1

C[C@@H]1CC[C@H]2[C@@H](C)C(=O)O[C@@H]3O[C@@]4(C)CC[C@@H]1[C@]32OO4 [ARTEMISININ]
IC50 (Plasmodium falciparum): 0.01 mg/L

CC[C@@]1(O)C(=O)OCc2c1cc1n(c2=O)Cc2cc3ccccc3nc2-1 [CAMPTOTHECIN]
IC50 (WI-38): 0.03 mg/L (≈ 0.0861 µM)
